The values that follow come from publication PMC9413995, “Synthesis and Assessment of the In Vitro and Ex Vivo Activity of Salicylate Synthase (Mbti) Inhibitors as New Candidates for the Treatment of Mycobacterial Infections” (Pharmaceuticals, 2022).

Converted amounts (≈) assume the structure as drawn. “And” between values parts separate entries of the source, which are not always exact repeats. Equal values may be shown once. “Also recorded” adds a separate entry of the source. Read-outs that look alike come from different tables or passages of the source.

Data set [1] concerns M. bovis BCG. As to conditions: previous lead; cited from earlier work.
Data set [2] deals with M. bovis BCG. Type of data set: cell-based.
In data set [3] the test system is M. abscessus. Briefly: Infection assay of MPI-2-eGFP mAMs with M. abscessus tdTomato. Type of data set: cell-based.
The test system of data set [4] is platelets. Briefly: Platelet activation assessment by whole blood flow cytometry. The format is cell-based, human. Here is the method:
(§1) Whole blood (WB), drawn with a 19-gauge needle without venous stasis into sodium citrate (0.129M, 1/10 volume/volume)-containing tubes (Vacutainer, Becton Dickinson), discarding the first 4 mL, was incubated with 1f (100 nM, 500 nM, and 1000 nM) or with solvent (DMSO; final dilution: 0.01%) up to 3 h at room temperature. Untreated (NT) WB of each healthy volunteer was used as a comparison.
(§2) PLT, RBC, and WBC counts were assessed at 0, 15, 30, 45, 60, 120 min and 3 h after the addition of 1f or solvent using Sysmex XE-2100 Automated Hematology Analyzer. Data were reported as count ± SD of each cell population. To evaluate the effect of 1f on platelet activation, conventional platelet activation markers [P-selectin and activated glycoprotein IIbIIIa (aGPIIbIIIa)], as well as platelet-associated tissue factor (TF) expression, were analyzed by WB flow cytometry as previously described at 0, 30 and 60 min after the addition of the highest concentration of 1f or solvent. […] Microvesicle formation, another well-known activation marker, was also assessed by flow cytometry at each time point after the addition of different concentrations of 1f or solvent. Fluorochrome-conjugated isotype controls were used to quantify the background labeling. […]

Data set [5] has as its system M. bovis BCG. Type of data set: cell-based. The source holds these as a separate data set.
In data set [6] the test system is M. bovis BCG. Briefly: microbe, parasite or virus in culture. The format is cell-based. As to conditions: iron-limiting chelated Sauton's medium, REMA, 15 days.
Data set [7] has as its system platelet (PLT), red blood cells (RBC), and white blood cells (WBC). Briefly: Blood cell count in whole blood of healthy volunteers. The format is cell-based, human. As to conditions: 100 nM, 500 nM, 1 µM, up to 3 h, room temperature. As for the experimental part: as §1, §2
The target of data set [8] is T1, Recombinant M. tuberculosis MbtI (Mycobacterium tuberculosis, UniProt P9WFX1).
T1 construct: made in house
T1 sequence (P9WFX1 whole entry): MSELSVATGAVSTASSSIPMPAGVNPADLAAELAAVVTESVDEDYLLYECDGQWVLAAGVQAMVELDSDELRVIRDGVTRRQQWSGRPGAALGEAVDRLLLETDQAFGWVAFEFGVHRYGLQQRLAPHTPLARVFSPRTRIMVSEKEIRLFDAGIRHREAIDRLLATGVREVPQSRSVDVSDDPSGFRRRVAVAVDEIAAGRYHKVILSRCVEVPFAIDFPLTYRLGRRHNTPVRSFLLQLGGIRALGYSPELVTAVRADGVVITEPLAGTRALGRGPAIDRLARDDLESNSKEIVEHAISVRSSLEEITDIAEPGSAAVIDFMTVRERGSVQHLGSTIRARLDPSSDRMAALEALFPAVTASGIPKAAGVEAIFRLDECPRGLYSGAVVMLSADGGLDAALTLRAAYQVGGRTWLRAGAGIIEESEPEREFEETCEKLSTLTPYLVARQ
Briefly: MbtI enzymatic assay (fluorimetric). As to conditions: for IC50: MbtI activity, calculated for compounds showing %RA < 20; for remaining activity at 100 µM / % RA (percentage of residual enzymatic activity): compound at 100 μM, 50 µM chorismic acid; for remaining activity at 100 µM: read-out: % RA (percentage of residual enzymatic activity). The format is biochemical. As for the experimental part: Recombinant M. tuberculosis MbtI was produced and purified, and enzyme activity determined as previously reported. All the reactions were performed at 37 °C, in a final volume of 400 μL of 50 mM Hepes pH 7.5, 5 mM MgCl2, containing 1–2 μM MbtI, by the addition of chorismic acid, and monitored using a Perkin Elmer LS3 fluorimeter (Ex. λ = 305 nm, Em. λ = 420 nm). […] IC50 values were determined by measuring the activity at different concentrations of the compound, and using the following equation with GraphPad software:(1) A[I] =A[0] × 1−[I]/[I]+IC50
where A[I] is the activity at inhibitor concentration [I] and A[0] is the activity in the absence of the inhibitor.

Where [9] appears, read: Mycobacterium tuberculosis variant bovis BCG, BCG, 360 h.

Regarding `N#Cc1cccc(-c2ccc(C(=O)O)o2)c1` [I, 5-(3-cyanophenyl)furan-2-carboxylic acid], in data set [1], the MIC99 is 250 µM (≈ 53.3 µg/mL).
The term IC50 denotes the concentration needed to halve the response being measured. For `N#Cc1cc(OCCOc2ccccc2)cc(-c2ccc(C(=O)O)o2)c1` [1f, 5-(3-Cyano-5-(2-phenoxyethoxy)phenyl)furan-2-carboxylic acid], in data set [2] (CAS assay, M. bovis BCG in chelated Sauton's medium), the “minimal concentration that prevented the production of siderophores” value was 32 µM. Further, in data set [2] (M. bovis BCG culture supernatants, 15 days), the “relation of antimycobacterial activity to inhibition of iron uptake (Universal CAS assay)” value is “correlated to the inhibition of iron uptake; also recorded: positively related to the inhibition of iron uptake”. Further, in [3] (highest concentration tested (32 μM), plate reader), the “Mab_tdTomato load 3-days p.t with respect to the prior time point” value is given as “significantly reduced”. Moreover, the “intracellular Mab_tdTomato burden in infected cells (microscopy, image segmentation)” value in data set [3] (up to 32 μM, 2- and 3-days p.t) is reported as “did not display a decrease in the Mab_tdTomato burden”. In addition, the “Mab infection clearance / Mab_tdTomato load in infected MPI-2_eGFP” value in [3] (up to 32 μM, 2- and 3-days p.t, plate reader) was “did not resolve Mab infection; also recorded: did not detect a significant efficacy in killing intracellular bacteria”. Also, in data set [4] (1 µM (highest concentration), 0, 30, 60 min), the “platelet activation markers: P-selectin, monocyte-platelet and granulocyte-platelet aggregates, aGPIIbIIIa” value is recorded as “not affected”. In addition, the “platelet-associated Tissue Factor expression, microvesicle formation” value in data set [4] (1 µM, 0, 30, 60 min) is on record as “not influenced”. In data set [5], the “BCG_tdTomato fluorescence / eGFP in infected MPI-2_eGFP” value is recorded as “did not detect a reduction in Tdtomato fluorescence nor an increase in eGFP; also recorded: did not detect a significant efficacy in killing intracellular bacteria”. Besides, the MIC99 in data set [6] (setting [9]) worked out at 63 µM (≈ 22 µg/mL). The “PLT, RBC, and WBC counts” value in data set [7] was “like untreated (NT) and DMSO-treated whole blood; also recorded: does not affect blood cell count; also recorded: no cytotoxicity against human cells”. In addition, in [8], the IC50 is 12.1 ± 2 µM and the remaining activity at 100 µM came out at 5.5 ± 2.4%.
Broadly, the melting point is the temperature of the solid-liquid transition. In the case of `N#Cc1cc(OCc2ccc3ccccc3c2)cc(-c2ccc(C(=O)O)o2)c1` [1j, 5-(3-Cyano-5-(naphthalen-2-ylmethoxy)phenyl)furan-2-carboxylic acid], the melting point is 209 °C (dec.). Besides, the MIC99 in data set [6] (setting [9]) was determined as 250 µM (≈ 92.3 µg/mL). In data set [8], the IC50 was 34.8 ± 2.5 µM and the remaining activity at 100 µM came out at 19.8 ± 6.5%.
As to `N#Cc1cc(OCCCc2ccccc2)cc(-c2ccc(C(=O)O)o2)c1` [1d, 5-(3-Cyano-5-(3-phenylpropoxy)phenyl)furan-2-carboxylic acid], the melting point stood at 186 °C. Besides, in data set [8], the “% RA (percentage of residual enzymatic activity)” value is reported as 25.6 ± 5.8% and the remaining activity at 100 µM is ~25%.
`N#Cc1cc(OCCNc2ccccc2)cc(-c2ccc(C(=O)O)o2)c1` [1g, 5-(3-Cyano-5-(2-(phenylamino)ethoxy)phenyl)furan-2-carboxylic acid] had an MIC99 in data set [6] (setting [9]) of 250 µM (≈ 87.1 µg/mL). In data set [8], the IC50 is ~18 µM and 18 µM; the remaining activity at 100 µM turned out to be 9.3 ± 2.2%.
For the molecule `N#Cc1cc(Oc2ccc3cccnc3c2)cc(-c2ccc(C(=O)O)o2)c1` [1i, 5-(3-Cyano-5-(quinolin-7-yloxy)phenyl)furan-2-carboxylic acid], the melting point was 263 °C (dec.). In [6] (setting [9]), this molecule returned an MIC99 of 125 µM (≈ 44.5 µg/mL). For the same molecule, in [8], the IC50 is 16.6 ± 1 µM and the remaining activity at 100 µM worked out at 13.9 ± 3.1%.
In turn, `N#Cc1cc(OCCc2ccccc2)cc(-c2ccc(C(=O)O)o2)c1` [1c, 5-(3-Cyano-5-phenethoxyphenyl)furan-2-carboxylic acid] yielded a melting point of 202 °C. In data set [6] (setting [9]), this molecule came in with an MIC99 of 250 µM (≈ 83.3 µg/mL). Moreover, in data set [8], the concentration for half-maximal inhibition (IC50) was ~3 µM and 3 µM; the remaining activity at 100 µM is 0.6 ± 0.5%.
Turning to `N#Cc1cc(Oc2ccccc2)cc(-c2ccc(C(=O)O)o2)c1` [1a, 5-(3-Cyano-5-phenoxyphenyl)furan-2-carboxylic acid], the MIC99 in data set [6] (setting [9]) worked out at 125 µM (≈ 38.2 µg/mL). Further, in data set [8], the IC50 was 23.1 ± 2.6 µM, the “% RA (percentage of residual enzymatic activity)” value was determined as 14.0 ± 4.1% and the remaining activity at 100 µM is 14%.
Molecule `N#Cc1cc(OCc2ccccc2)cc(-c2ccc(C(=O)O)o2)c1` [1b, 5-(3-(Benzyloxy)-5-cyanophenyl)furan-2-carboxylic acid] registered a melting point of 187 °C. Further, the MIC99 in data set [6] (setting [9]) worked out at 250 µM (≈ 79.8 µg/mL). Also, in data set [8], the IC50 is 15.6 ± 1.2 µM and the remaining activity at 100 µM was determined as 1.2 ± 0.4%.
Molecule `N#Cc1cc(Oc2ccc3ccccc3c2)cc(-c2ccc(C(=O)O)o2)c1` [1h, 5-(3-Cyano-5-(naphthalen-2-yloxy)phenyl)furan-2-carboxylic acid] yielded a melting point of 226 °C. Moreover, the MIC99 in [6] (setting [9]) worked out at 125 µM (≈ 44.4 µg/mL). For the same molecule, in data set [8], the 50% inhibitory concentration (IC50) was 16.3 ± 1.2 µM and the remaining activity at 100 µM stood at 12.7 ± 2%.
`N#Cc1cc(OC/C=C/c2ccccc2)cc(-c2ccc(C(=O)O)o2)c1` [1e, (E)-5-(3-(Cinnamyloxy)-5-cyanophenyl)furan-2-carboxylic acid] came in with a melting point of 170 °C. The MIC99 in data set [6] (setting [9]) is ~125 µM (≈ 43.2 µg/mL). Further, the MIC99 in [6] was 125 µM (≈ 43.2 µg/mL). Moreover, in data set [8], the IC50 is 13.5 ± 1 µM and the remaining activity at 100 µM was determined as 11.5 ± 1.7%.
